This is an account of results in patent US5491242A, “Protein kinase C inhibitors” (Eli Lilly and Company, priority 1995, dated 1996).

Like-named read-outs stand apart in the source and are kept apart here.

Common to all, as to type: biochemical
One experiment deals with PKC alpha (Homo sapiens, UniProt P17252). In words: PKC Enzyme Assay, alpha. Here is the method: (§1) PKC enzymes=alpha, beta I, beta II, gamma, delta, epsilon, eta and zeta
(§2) Assay components in a total volume of 250 μL are the following:
(§3) Vesicles consisting of 120 μg/mL phosphatidylserine (Avanti Polar Lipids) and sufficient diacylglycerol (Avanti Polar Lipids) to activate the enzyme to maximum activity in 20 mM HEPES buffer (Sigma, St. Louis, Mo.), pH 7.5, 940 μM calcium chloride (Sigma, St. Louis, Mo.) for assaying the alpha, beta I, beta II and gamma enzyme only, 1 mM EGTA for all the enzymes, 10 mM magnesium chloride (Sigma, St. Louis, Mo.) and 30 μM (gamma-32P) ATP (DuPont). For all the enzymes either histone type HL (Worthington) or myelin basic protein is used as substrate. The assay is started by addition of protein kinase C enzyme incubated at 30° C. for 10 minutes and stopped by adding 0.5 mL of cold trichloroacetic acid (Amresco) followed by 100 μL of 1 mg/mL bovine serum albumin (Sigma, St. Louis, Mo.). The precipitate is collected by vacuum filtration on glass fiber filters employing a TOMTEC™ filtration system and quantified by counting in a beta scintillation counter.

The next experiment deals with PKC beta I (Homo sapiens, UniProt P05771). Description: PKC Enzyme Assay, beta I. The settings on record: Table 1; read-out: IC50 β1. Here is the method: as §1, §2, §3
For another experiment, the target named is PKC beta II (Homo sapiens, UniProt P05771). In words: PKC Enzyme Assay, beta II. Here is the method:
as §1, §2, §3

The target in another experiment is PKC gamma (Homo sapiens, UniProt P05129). Description: PKC Enzyme Assay, gamma. Particulars: Table 1.
Another experiment has as its target PKC delta (Homo sapiens, UniProt Q05655). In words: PKC Enzyme Assay, delta. Particulars: Table 1.
The next experiment addresses T1, PKC zeta (Homo sapiens, UniProt Q05513).
T1 sequence (Q05513 1-592): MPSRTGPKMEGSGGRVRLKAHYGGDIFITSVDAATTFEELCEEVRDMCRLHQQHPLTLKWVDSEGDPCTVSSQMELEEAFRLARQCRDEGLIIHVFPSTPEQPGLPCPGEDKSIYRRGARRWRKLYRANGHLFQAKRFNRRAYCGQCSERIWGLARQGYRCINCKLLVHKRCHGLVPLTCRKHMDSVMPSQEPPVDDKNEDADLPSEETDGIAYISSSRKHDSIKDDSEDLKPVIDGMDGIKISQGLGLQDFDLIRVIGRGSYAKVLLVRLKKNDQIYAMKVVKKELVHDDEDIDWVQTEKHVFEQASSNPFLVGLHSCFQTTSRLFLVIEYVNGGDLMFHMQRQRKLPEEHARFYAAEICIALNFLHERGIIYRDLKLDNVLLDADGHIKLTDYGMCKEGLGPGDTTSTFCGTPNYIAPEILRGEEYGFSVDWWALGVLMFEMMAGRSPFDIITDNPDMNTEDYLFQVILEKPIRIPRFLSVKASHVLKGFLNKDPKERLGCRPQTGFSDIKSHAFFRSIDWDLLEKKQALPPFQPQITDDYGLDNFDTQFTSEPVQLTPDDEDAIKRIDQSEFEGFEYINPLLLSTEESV
In words: PKC Enzyme Assay, zeta. Particulars: Table 1. The procedure:
as §1, §2, §3

PKC delta, sequence (Q05655 whole entry): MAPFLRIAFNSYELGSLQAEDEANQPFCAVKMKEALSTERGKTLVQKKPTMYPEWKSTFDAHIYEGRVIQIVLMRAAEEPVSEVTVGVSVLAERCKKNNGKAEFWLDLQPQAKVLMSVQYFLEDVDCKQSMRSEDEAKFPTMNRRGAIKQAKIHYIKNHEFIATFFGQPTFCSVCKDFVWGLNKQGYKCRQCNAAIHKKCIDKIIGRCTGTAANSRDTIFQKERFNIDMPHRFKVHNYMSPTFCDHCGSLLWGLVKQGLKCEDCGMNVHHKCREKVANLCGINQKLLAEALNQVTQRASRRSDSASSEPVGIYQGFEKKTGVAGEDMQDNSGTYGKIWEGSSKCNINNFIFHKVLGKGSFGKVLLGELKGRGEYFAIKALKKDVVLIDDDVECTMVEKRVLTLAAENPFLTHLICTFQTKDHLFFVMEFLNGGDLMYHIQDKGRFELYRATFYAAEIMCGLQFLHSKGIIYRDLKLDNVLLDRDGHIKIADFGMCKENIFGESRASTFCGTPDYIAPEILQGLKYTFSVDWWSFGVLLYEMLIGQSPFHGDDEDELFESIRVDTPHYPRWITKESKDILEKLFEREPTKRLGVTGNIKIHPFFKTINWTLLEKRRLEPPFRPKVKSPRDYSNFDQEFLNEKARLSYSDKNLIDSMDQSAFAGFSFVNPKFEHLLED
PKC beta I, sequence (P05771 whole entry): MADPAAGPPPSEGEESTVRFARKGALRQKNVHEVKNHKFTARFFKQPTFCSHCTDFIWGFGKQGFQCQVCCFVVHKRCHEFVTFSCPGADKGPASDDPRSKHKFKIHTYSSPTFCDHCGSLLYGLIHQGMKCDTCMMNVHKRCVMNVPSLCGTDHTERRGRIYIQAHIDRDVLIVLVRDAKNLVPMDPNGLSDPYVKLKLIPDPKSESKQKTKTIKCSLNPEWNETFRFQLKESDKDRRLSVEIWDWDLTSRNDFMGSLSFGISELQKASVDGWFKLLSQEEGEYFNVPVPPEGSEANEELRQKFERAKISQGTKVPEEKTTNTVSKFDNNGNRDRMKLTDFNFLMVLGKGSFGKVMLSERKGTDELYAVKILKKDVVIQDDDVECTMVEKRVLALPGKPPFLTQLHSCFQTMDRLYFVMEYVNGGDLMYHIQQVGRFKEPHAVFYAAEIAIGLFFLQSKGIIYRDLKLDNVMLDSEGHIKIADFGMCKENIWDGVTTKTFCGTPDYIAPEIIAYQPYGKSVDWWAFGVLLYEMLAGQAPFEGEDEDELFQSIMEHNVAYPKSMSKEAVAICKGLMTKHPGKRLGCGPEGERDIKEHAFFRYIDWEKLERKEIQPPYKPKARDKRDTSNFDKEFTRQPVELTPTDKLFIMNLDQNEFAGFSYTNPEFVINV
PKC beta II, sequence (P05771 1-673 isoform P05771-2): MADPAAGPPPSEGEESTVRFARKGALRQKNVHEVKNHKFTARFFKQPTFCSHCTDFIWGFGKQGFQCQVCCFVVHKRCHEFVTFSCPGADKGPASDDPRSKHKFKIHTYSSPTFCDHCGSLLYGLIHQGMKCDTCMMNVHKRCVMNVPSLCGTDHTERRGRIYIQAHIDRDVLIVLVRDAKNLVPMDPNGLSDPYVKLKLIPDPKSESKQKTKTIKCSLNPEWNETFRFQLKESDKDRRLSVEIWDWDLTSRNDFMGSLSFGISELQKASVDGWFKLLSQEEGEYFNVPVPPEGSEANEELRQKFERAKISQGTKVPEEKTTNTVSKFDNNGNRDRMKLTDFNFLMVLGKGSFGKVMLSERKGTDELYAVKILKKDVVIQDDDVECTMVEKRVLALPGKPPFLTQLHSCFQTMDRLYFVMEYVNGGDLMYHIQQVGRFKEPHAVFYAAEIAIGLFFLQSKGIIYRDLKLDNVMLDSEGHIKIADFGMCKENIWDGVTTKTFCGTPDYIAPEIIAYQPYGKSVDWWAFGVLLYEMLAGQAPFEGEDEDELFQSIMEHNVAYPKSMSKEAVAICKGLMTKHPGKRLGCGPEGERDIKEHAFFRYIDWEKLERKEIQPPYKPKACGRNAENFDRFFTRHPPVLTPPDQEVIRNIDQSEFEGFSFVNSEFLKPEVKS

As to `CC(C)(C)OC(=O)NCC(=O)n1cc(C2=C(c3cn(CCCN=[N+]=[N-])c4ccccc34)C(=O)NC2=O)c2ccccc21` [Example 1, 3-[1-(3-azidopropyl)-3-indolyl]-4-[(1-N-^t BOC)-glycine-3-indolyl]-1H-pyrrol-2,5-dione], the IC50 is 1.4 µM on PKC alpha (read-out: IC50 with respect to the alpha protein kinase C isozyme); 0.26 µM at PKC beta I; 0.031 µM at PKC beta II (read-out: 50% inhibition at a concentration for the beta-2 isozyme); 19 µM on PKC gamma; 4.6 µM against PKC delta; 100 µM against PKC zeta.

With `CC(C)(C)OC(=O)N[C@@H](Cc1ccccc1)C(=O)n1cc(C2=C(c3cn(C(=O)[C@H](Cc4ccccc4)NC(=O)OC(C)(C)C)c4ccccc34)C(=O)NC2=O)c2ccccc21` [Example 3, 3,4-Bis[(1-N-^t BOC)-phenylalanine-3-indolyl]-1H-pyrrol-2,5-dione], the IC50 at PKC alpha (Table 1, read-out: IC50 α) is 83 µM; on PKC beta I, 8 µM; on PKC beta II (Table 1, read-out: IC50 β2), 2.6 µM; against PKC gamma it was more than 100 µM; against PKC delta, more than 100 µM; on PKC zeta, more than 100 µM.
